Reference: PMC12133982, “Predominant T-cell epitopes of SARS-CoV-2 restricted by multiple prevalent HLA-B and HLA-C allotypes in Northeast Asia” (Frontiers in Immunology, 2025)
Peptide text beside a SMILES is read from it.

Assays:
HLA-C0102 = HLA-C0102 (Homo sapiens, UniProt P10321, A176E/A330V/A35S/A97T/C350S/D114A/D33F/L171W/L180R/L218V/M285V/M309V/M331V/P208H/Q277E/Q291P/R121W/R243W/R30K/S123C/S140Y/S297R/T329A/T363A/V272M/V319A); assay: Competitive peptide binding assay, CIR-C0102
Description: (§1) Then, competitive peptide binding assays were performed.

HLA-C0602 = HLA-C0602 (Homo sapiens, UniProt P10321, A176E/A330V/C350S/L171W/L180W/L218V/M285V/M309V/M331V/N104K/P208H/Q277E/Q291P/R121W/S101N/S123Y/S297R/T329A/T363A/V319A/V328M); assay: Competitive peptide binding assay, CIR-C0602
HLA-B4601 = HLA-B4601 (Homo sapiens, UniProt P01889, A329T/A93R/C349S/D201E/E100V/E187L/E204Q/E69M/E70A/I90K/K202T/N87E/R155S/R180W/S121R/S35A/S48A/V306I/V36M/Y140S); assay: Competitive peptide binding assay, CIR-B4601; conditions: for IC50: HMy2.CIR-B4601 cells, reference Cy5-[…], class from inhibition at 5 and 15 μM, flow cytometry MFI, read-out: Binding affinity with HLA-B4601; for inhibition at 5 µM: read-out: Inhibition % of Cy5-reference peptide binding, CIR-B4601, 5μM peptide; for inhibition at 15 µM: read-out: Inhibition % of Cy5-reference peptide binding, CIR-B4601, 15μM peptide
Description: as §1

HLA-B3501 = HLA-B3501 (Homo sapiens, UniProt P01889, A329T/A93T/A95T/C349S/D201E/D98Y/E176V/E187L/E204Q/E69T/I218V/K202T/L119I/Q94N/R155S/R180L/S121R/S35A/S48A/T118I/V127L/V306I/V36M/Y140S/Y91F); assay: Competitive peptide binding assay, CIR-B3501; conditions: HMy2.CIR-B3501 cells, reference Cy5-[…], class from inhibition at 5 and 15 μM, flow cytometry MFI; read-out: Binding affinity with HLA-B3501
Description: as §1

HLA-B1301 = HLA-B1301 (Homo sapiens, UniProt P01889, A65T/A93T/A95T/D138N/D201E/D98Y/E176V/E204Q/E69M/E70A/G107R/K202T/L105A/L119I/N104T/N87E/Q94N/R106L/R155S/R169L/R180L/S101N/S121R/S35A/S48T/T118I/V127L/V36M/Y140L/Y91S); assay: Competitive peptide binding assay, CIR-B1301; conditions: HMy2.CIR-B1301 cells, reference Cy5-[…], class from inhibition at 5 and 15 μM, flow cytometry MFI; read-out: Binding affinity with HLA-B1301
Description: as §1

HLA-B1501 = HLA-B1501 (Homo sapiens, UniProt P01889, A329T/A93T/A95T/C349S/D201E/D98Y/E187L/E204Q/E69M/E70A/K202T/N87E/Q94N/R155S/R180W/S121R/S35A/S48A/V306I/V36M/Y140S/Y91S); assay: Competitive peptide binding assay, CIR-B1501; conditions: HMy2.CIR-B1501 cells, reference Cy5-[…], class from inhibition at 5 and 15 μM, flow cytometry MFI; read-out: Binding affinity with HLA-B1501
Description: as §1

HLA-B5801 = HLA-B5801 (Homo sapiens, UniProt P01889, A329T/C349S/D201E/D98Y/E176V/E187L/E204Q/E69T/G107R/I218V/I90N/K202T/L105A/L119I/N104I/N87E/Q89R/Q94S/R106L/R155S/R180L/R86G/S101N/S121R/S35A/S48A/T118I/V127L/V306I/V36M/Y140S/Y91M); assay: Competitive peptide binding assay, CIR-B5801; conditions: HMy2.CIR-B5801 cells, reference Cy5-[…], class from inhibition at 5 and 15 μM, flow cytometry MFI; read-out: Binding affinity with HLA-B5801
Description: as §1

HLA-B1502 = HLA-B1502 (Homo sapiens, UniProt P01889, A329T/A93T/A95T/C349S/D201E/D98Y/E187L/E204Q/E69M/E70A/H137Y/K202T/L119I/Q94N/R155S/R180L/S121R/S35A/S48A/T118I/V306I/V36M/Y140S/Y91S); assay: Competitive peptide binding assay, CIR-B1502; conditions: HMy2.CIR-B1502 cells, reference Cy5-[…], class from inhibition at 5 and 15 μM, flow cytometry MFI; read-out: Binding affinity with HLA-B1502
Description: as §1

[1] = read-out: Inhibition % of Cy5-reference peptide binding

Row | Compound | IC50 (HLA-C0602) | IC50 (HLA-B3501) | IC50 (HLA-B1301) | IC50 (HLA-B1501) | IC50 (HLA-B1502) | further results
1 | CC(C)C[C@H](NC(=O)[C@H](C)NC(=O)[C@@H](NC(=O)[C@@H](N)CC(C)C)[C@@H](C)O)C(=O)N[C@@H](CCCNC(=N)N)C(=O)N[C@@H](CC(C)C)C(=O)N[C@@H](CS)C(=O)N[C@@H](C)C(=O)N[C@@H](Cc1ccc(O)cc1)C(=O)O [Epitope M51] (H-LTALRLCAY-OH; N-terminus and C-terminus assumed) | < 5 µM | – | – | – | – | IC50 (HLA-C0102; HMy2.CIR-C0102 cells, reference Cy5-[…], class from inhibition at 5 and 15 μM, flow cytometry MFI, read-out: Binding affinity with HLA-C0102): 5 to 15 µM; inhibition at 5 µM (HLA-C0102; [1]): 42.9%; inhibition at 15 µM (HLA-C0102; [1]): 77.6%
2 | CC(C)C[C@H](NC(=O)[C@@H](NC(=O)[C@@H]1CCCN1C(=O)[C@H](CC(N)=O)NC(=O)[C@H](CC(=O)O)NC(=O)[C@H](Cc1ccccc1)NC(=O)[C@H](CCCNC(=N)N)NC(=O)[C@@H](N)CCCCN)C(C)C)C(=O)N1CCC[C@H]1C(=O)N[C@@H](Cc1ccccc1)C(=O)O [Epitope M125] (H-KRFDNPVLPF-OH; N-terminus and C-terminus assumed) | 5 to 15 µM | – | – | – | – | –
3 | CC(C)[C@H](NC(=O)CNC(=O)[C@H](CCC(=O)O)NC(=O)[C@H](CCCNC(=N)N)NC(=O)[C@@H]1CCCN1C(=O)[C@H](Cc1ccccc1)NC(=O)[C@H](Cc1c[nH]cn1)NC(=O)[C@H](C)N)C(=O)N[C@@H](Cc1ccccc1)C(=O)O [Epitope M157] (H-AHFPREGVF-OH; N-terminus and C-terminus assumed) | > 15 µM | – | – | – | – | –
4 | CC[C@H](C)[C@H](N)C(=O)N[C@H](C(=O)N[C@@H](CC(=O)O)C(=O)N[C@@H](C)C(=O)N[C@H](C(=O)N[C@@H](CC(=O)O)C(=O)N[C@@H](CS)C(=O)N[C@@H](C)C(=O)N[C@@H](CC(C)C)C(=O)O)C(C)C)[C@@H](C)O [Epitope M161, ITDAVDCAL] (H-ITDAVDCAL-OH; N-terminus and C-terminus assumed) | > 15 µM | – | – | – | – | –
5 | CC(C)[C@H](NC(=O)[C@H](Cc1ccc(O)cc1)NC(=O)[C@H](CCC(=O)O)NC(=O)[C@H](Cc1ccccc1)NC(=O)[C@@H](N)[C@@H](C)O)C(=O)N[C@@H](CO)C(=O)N[C@@H](CCC(N)=O)C(=O)N1CCC[C@H]1C(=O)N[C@@H](Cc1ccccc1)C(=O)O [Epitope M180] (H-TFEYVSQPF-OH; N-terminus and C-terminus assumed) | > 15 µM | – | – | – | – | –
6 | CC[C@H](C)[C@H](NC(=O)[C@H](C)NC(=O)[C@@H](N)CC(C)C)C(=O)N[C@@H](CC(C)C)C(=O)N[C@H](C(=O)N[C@@H](C)C(=O)N[C@@H](CC(C)C)C(=O)N[C@@H](CCCNC(=N)N)C(=O)N[C@@H](CC(C)C)C(=O)O)[C@@H](C)O [Epitope Y7] (H-LAILTALRL-OH; N-terminus and C-terminus assumed) | – | 5 to 15 µM | – | – | – | IC50 (HLA-B4601): > 15 µM
7 | CC[C@H](C)[C@H](NC(=O)[C@@H](NC(=O)[C@H](CC(C)C)NC(=O)[C@H](CCC(=O)O)NC(=O)[C@H](CO)NC(=O)[C@H](CCC(=O)O)NC(=O)[C@H](CC(C)C)NC(=O)[C@H](CC(C)C)NC(=O)[C@@H]1CCCN1C(=O)[C@@H](N)CCCNC(=N)N)C(C)C)C(=O)O [Epitope Y43] (H-RPLLESELVI-OH; N-terminus and C-terminus assumed) | – | – | 5 to 15 µM | – | – | –
8 | CC(C)C[C@H](NC(=O)[C@H](CC(C)C)NC(=O)[C@H](CC(C)C)NC(=O)[C@H](C)NC(=O)[C@H](CC(C)C)NC(=O)[C@H](C)NC(=O)[C@H](C)NC(=O)[C@H](CC(=O)O)NC(=O)CN)C(=O)O [Epitope Y65] (H-GDAALALLL-OH; N-terminus and C-terminus assumed) | – | > 15 µM | < 5 µM | 5 to 15 µM | – | IC50 (HLA-B5801): 5 to 15 µM
9 | CC[C@H](C)[C@H](NC(=O)[C@H](CCC(N)=O)NC(=O)[C@@H](N)CC(C)C)C(=O)N1CCC[C@H]1C(=O)N[C@@H](Cc1ccccc1)C(=O)N[C@@H](C)C(=O)N[C@@H](CCSC)C(=O)N[C@@H](CCC(N)=O)C(=O)N[C@@H](CCSC)C(=O)O [Epitope Y81] (H-LQIPFAMQM-OH; N-terminus and C-terminus assumed) | – | – | < 5 µM | > 15 µM | – | IC50 (HLA-B4601): > 15 µM; inhibition at 5 µM (HLA-B4601): 9.21%; inhibition at 15 µM (HLA-B4601): 44%
10 | CC(C)[C@H](NC(=O)CNC(=O)[C@H](Cc1c[nH]cn1)NC(=O)[C@@H]1CCCN1C(=O)[C@H](C)NC(=O)[C@H](CO)NC(=O)[C@@H](N)CCC(N)=O)C(=O)N[C@H](C(=O)N[C@@H](Cc1ccccc1)C(=O)O)C(C)C [Epitope Y146] (H-QSAPHGVVF-OH; N-terminus and C-terminus assumed) | – | > 15 µM | – | < 5 µM | 5 to 15 µM | –
11 | CC(C)C[C@H](NC(=O)[C@@H](NC(=O)[C@H](CCCNC(=N)N)NC(=O)[C@H](CO)NC(=O)[C@@H](NC(=O)[C@H](C)NC(=O)[C@@H](N)C(C)C)[C@@H](C)O)[C@@H](C)O)C(=O)N[C@@H](CO)C(=O)N[C@@H](Cc1ccc(O)cc1)C(=O)O [Epitope Y158] (H-VATSRTLSY-OH; N-terminus and C-terminus assumed) | – | 5 to 15 µM | – | < 5 µM | 5 to 15 µM | IC50 (HLA-B5801): > 15 µM
12 | CC(C)C[C@H](NC(=O)[C@@H](N)CCC(N)=O)C(=O)N[C@H](C(=O)N1CCC[C@H]1C(=O)N[C@H](C(=O)N[C@@H](Cc1c[nH]c2ccccc12)C(=O)N[C@@H](CCCNC(=N)N)C(=O)N[C@H](C(=O)N[C@@H](Cc1ccc(O)cc1)C(=O)O)C(C)C)[C@@H](C)O)[C@@H](C)O [Epitope Y175] (H-QLTPTWRVY-OH; N-terminus and C-terminus assumed) | – | > 15 µM | > 15 µM | > 15 µM | 5 to 15 µM | IC50 (HLA-B5801): < 5 µM
13 | CC[C@H](C)[C@H](NC(=O)CNC(=O)[C@H](CC(=O)O)NC(=O)[C@H](CCCCN)NC(=O)[C@H](CC(N)=O)NC(=O)[C@H](C)NC(=O)CNC(=O)[C@H](Cc1ccc(O)cc1)NC(=O)[C@@H]1CCCN1C(=O)[C@@H](N)CC(C)C)C(=O)O [Epitope Y273] (H-LPYGANKDGI-OH; N-terminus and C-terminus assumed) | – | – | – | > 15 µM | 5 to 15 µM | IC50 (HLA-B4601): > 15 µM; inhibition at 5 µM (HLA-B4601): 11.6%; inhibition at 15 µM (HLA-B4601): 31%; IC50 (HLA-B5801): > 15 µM
14 | CC[C@H](C)[C@H](N)C(=O)N[C@@H](C)C(=O)N[C@@H](CC(N)=O)C(=O)N[C@@H](CCC(N)=O)C(=O)N[C@@H](Cc1ccccc1)C(=O)N[C@@H](CC(N)=O)C(=O)N[C@@H](CO)C(=O)N[C@@H](C)C(=O)N[C@H](C(=O)O)[C@@H](C)CC [Epitope Y283] (H-IANQFNSAI-OH; N-terminus and C-terminus assumed) | – | – | > 15 µM | 5 to 15 µM | > 15 µM | –
